From ChEMBL document CHEMBL1201862, “PubChem BioAssay data set” (2004)
The source made the active and inactive calls.

Experiments:
[1] = reduction of Shn3 3'UTR-driven luciferase in osteoblasts – cell-based, Clone20 osteoblasts, firefly luciferase, cherry-picked, dose response (AID 624132); format: functional;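 further: firefly luciferase luminescence from reporter carrying the Shn3 3'UTR in osteoblasts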
[2] = HIV-1 Vif–A3G interaction blockers – biochemical, TR-FRET, GST-Vif 1-94, biotin-A3G peptide, dose response retest, primary screen (AID 1117319); format: functional;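 further: TR-FRET signal of purified GST-Vif binding a biotinylated A3G peptide; inhibitors lower the FRET signal by blocking Vif and A3G binding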
[3] = molecular target: T1, Polyadenylate-binding protein 1 (Homo sapiens, UniProt P11940); test: MLLE binding blockers, Cy5 peptide tracer – biochemical, fluorescence polarization, Cy5-PAM2 peptide, secondary, miRNA deadenylation inhibitor project, dose response (AID 602260); format: functional; conditions: read-out: IC50_Mean
T1 sequence (P11940 whole entry, the tested form may be a part): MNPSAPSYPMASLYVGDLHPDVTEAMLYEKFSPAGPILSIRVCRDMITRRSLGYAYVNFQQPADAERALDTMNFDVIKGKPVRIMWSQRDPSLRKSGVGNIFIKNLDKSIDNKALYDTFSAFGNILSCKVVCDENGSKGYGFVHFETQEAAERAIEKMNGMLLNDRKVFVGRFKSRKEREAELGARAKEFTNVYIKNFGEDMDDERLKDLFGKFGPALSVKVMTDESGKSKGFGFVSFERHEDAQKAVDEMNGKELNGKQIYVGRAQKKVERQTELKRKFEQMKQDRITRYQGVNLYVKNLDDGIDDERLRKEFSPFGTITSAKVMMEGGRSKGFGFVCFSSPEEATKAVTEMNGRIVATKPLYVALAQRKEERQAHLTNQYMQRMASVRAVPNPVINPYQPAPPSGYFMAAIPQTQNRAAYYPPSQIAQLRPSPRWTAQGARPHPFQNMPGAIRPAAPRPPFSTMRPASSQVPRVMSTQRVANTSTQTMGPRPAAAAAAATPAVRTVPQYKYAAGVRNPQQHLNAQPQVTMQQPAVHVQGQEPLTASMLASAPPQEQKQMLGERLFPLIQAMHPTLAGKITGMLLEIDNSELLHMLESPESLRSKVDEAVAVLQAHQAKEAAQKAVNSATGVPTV

[4] = molecular target: T1, Polyadenylate-binding protein 1; test: MLLE domain peptide-binding blockers, IC50 – biochemical, fluorescence polarization, FITC-PAM2 peptide, dose response (AID 602259); format: functional; conditions: read-out: IC50_Mean
[5] = molecular target: T2, Histone-lysine N-methyltransferase NSD2 (Homo sapiens, UniProt O96028); format: biochemical
T2 sequence (O96028 whole entry): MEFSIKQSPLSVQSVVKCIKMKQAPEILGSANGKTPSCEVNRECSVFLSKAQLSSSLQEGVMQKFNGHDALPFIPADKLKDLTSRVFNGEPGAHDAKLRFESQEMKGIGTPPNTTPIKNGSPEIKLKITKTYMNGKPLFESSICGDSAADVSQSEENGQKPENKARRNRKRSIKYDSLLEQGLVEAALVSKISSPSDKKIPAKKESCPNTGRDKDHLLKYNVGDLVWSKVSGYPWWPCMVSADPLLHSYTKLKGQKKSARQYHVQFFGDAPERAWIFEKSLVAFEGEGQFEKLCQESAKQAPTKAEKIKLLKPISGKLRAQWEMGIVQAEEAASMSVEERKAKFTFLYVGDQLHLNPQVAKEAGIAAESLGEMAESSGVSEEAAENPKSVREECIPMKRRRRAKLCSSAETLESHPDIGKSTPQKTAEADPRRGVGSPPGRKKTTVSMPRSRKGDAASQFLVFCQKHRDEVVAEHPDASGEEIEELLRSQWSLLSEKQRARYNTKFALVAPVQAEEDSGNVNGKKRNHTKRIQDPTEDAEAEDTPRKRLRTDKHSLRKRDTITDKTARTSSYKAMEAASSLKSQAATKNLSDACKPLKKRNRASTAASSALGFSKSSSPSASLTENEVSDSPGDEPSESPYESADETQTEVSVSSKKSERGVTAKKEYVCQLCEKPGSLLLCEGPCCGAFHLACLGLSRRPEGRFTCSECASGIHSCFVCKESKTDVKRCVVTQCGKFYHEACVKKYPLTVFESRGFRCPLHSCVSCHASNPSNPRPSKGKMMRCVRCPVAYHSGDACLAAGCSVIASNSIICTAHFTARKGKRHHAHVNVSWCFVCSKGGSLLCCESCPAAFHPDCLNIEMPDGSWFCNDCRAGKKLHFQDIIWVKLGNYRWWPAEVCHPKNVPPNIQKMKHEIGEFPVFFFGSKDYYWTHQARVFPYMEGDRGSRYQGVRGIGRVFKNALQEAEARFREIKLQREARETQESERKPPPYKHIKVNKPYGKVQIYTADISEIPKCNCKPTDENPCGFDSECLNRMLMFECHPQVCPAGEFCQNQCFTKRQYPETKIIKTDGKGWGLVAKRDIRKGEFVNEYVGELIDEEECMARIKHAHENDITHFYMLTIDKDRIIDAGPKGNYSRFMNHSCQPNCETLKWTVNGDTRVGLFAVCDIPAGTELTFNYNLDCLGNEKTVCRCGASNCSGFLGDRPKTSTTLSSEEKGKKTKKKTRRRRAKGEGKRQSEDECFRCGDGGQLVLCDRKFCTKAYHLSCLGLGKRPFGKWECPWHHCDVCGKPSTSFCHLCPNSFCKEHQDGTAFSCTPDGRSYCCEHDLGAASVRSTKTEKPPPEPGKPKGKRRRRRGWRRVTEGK

[6] = molecular target: Heat shock protein HSP 90-alpha (Homo sapiens, UniProt P07900); format: functional, organism-based
[7] = Luminescence Cell-Based Dose Retest to Confirm Inhibitors of Cancer Stem Cells. [Related pubchem assays (depositor defined):AID2717, AID2721]; format: functional; conditions: Homo sapiens
[8] = molecular target: T3, DNA repair protein RAD52 homolog (Homo sapiens, UniProt P43351); format: functional, biochemical
T3 sequence (P43351 whole entry): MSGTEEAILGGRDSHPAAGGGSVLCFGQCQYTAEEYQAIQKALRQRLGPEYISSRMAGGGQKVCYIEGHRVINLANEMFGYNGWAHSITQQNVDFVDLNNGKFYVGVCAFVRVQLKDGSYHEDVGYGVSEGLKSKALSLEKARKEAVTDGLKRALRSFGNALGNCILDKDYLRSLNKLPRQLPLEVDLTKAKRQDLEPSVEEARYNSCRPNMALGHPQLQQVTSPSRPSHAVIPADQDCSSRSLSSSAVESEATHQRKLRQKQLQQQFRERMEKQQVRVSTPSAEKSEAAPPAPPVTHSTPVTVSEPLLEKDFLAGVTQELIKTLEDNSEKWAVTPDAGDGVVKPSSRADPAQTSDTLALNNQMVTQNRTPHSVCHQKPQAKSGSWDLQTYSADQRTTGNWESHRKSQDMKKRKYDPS

[9] = molecular target: T4, Rac GTPase-activating protein 1 (Homo sapiens, UniProt Q9H0H5); test: blockers of MgcRacGAP-driven Rac1 GTP hydrolysis – biochemical, ADP Hunter fluorescence, primary and confirmatory, confirmation (AID 624330); format: functional
T4 sequence (Q9H0H5 whole entry): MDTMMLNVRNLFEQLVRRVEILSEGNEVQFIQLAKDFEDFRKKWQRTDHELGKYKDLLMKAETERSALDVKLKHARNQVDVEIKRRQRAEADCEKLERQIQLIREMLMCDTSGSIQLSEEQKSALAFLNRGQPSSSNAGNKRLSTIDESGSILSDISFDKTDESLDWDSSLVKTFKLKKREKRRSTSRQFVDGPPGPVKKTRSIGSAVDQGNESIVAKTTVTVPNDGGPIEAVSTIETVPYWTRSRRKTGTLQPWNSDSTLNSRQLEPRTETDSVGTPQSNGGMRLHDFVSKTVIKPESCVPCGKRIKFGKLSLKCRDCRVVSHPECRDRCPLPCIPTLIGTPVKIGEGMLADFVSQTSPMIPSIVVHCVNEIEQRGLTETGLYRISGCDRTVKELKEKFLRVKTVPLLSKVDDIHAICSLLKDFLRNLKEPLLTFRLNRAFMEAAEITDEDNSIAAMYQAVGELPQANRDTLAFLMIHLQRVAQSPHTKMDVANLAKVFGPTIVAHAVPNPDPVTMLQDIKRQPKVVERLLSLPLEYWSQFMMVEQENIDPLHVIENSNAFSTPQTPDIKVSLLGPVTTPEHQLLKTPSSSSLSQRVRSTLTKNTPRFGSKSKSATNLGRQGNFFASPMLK

[10] = cells; format: functional, cell-based
[11] = test system: Streptococcus; test: GAS UMAA2166 growth inhibition – luminescence, BacTiterGlo, counter-screen for streptokinase expression inhibitor project, dose response (AID 1915); format: functional, organism-based;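 further: potency for reduction of bacterial viability or growth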
[12] = cells; format: functional, cell-based; remark: listed apart in the source
[13] = test system: Streptococcus sp. 'group A'; test: Streptococcus pyogenes SK(-)GAS viability under kanamycin – luminescence, BacTiterGlo, confirmation, counter-screen for streptokinase expression inhibitor project, dose response (AID 1900); format: functional, organism-based
[14] = NIH-3T3 fibroblast cytotoxicity, dose response, cytotoxicity control, cell-based, fluorescence, Alamar Blue, secondary assay (AID 2327); format: functional;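 further: NIH-3T3 mouse fibroblasts cultured with fluconazole at 8 µg/mL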
[15] = test system: HEK293; test: EBV LMP1 TES2 canonical NF-kB signalling blockers – cell-based, HEK293, luciferase, cherry-pick, dose response (AID 588343); format: functional; conditions: Homo sapiens
[16] = fluconazole-exposed Candida albicans growth modulators – fluorescence, retest, confirmation (AID 2467); format: functional, cell-based
[17] = alpha-synuclein stem-loop luciferase translation blockers – H4 neuroglioma cells, luminescence, confirmation (AID 1988); format: functional, cell-based
[18] = Luminescence Cell-Based Dose Response HTS to Identify Inhibitors of 5'UTR Stem-Loop Driven Prion Protein mRNA Translation in H4 Neuroglioblastoma Cells. [Related pubchem assays: 1827 (Project Summary), 1813 (Primary HTS)]; format: functional
[19] = molecular target: Large T antigen (Simian virus 40, UniProt P03070); format: functional, Betapolyomavirus macacae;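 further: Confirmatory-stage PubChem screen for compounds that inhibit SV40 T antigen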
Sequence of Large T antigen (P03070 whole entry): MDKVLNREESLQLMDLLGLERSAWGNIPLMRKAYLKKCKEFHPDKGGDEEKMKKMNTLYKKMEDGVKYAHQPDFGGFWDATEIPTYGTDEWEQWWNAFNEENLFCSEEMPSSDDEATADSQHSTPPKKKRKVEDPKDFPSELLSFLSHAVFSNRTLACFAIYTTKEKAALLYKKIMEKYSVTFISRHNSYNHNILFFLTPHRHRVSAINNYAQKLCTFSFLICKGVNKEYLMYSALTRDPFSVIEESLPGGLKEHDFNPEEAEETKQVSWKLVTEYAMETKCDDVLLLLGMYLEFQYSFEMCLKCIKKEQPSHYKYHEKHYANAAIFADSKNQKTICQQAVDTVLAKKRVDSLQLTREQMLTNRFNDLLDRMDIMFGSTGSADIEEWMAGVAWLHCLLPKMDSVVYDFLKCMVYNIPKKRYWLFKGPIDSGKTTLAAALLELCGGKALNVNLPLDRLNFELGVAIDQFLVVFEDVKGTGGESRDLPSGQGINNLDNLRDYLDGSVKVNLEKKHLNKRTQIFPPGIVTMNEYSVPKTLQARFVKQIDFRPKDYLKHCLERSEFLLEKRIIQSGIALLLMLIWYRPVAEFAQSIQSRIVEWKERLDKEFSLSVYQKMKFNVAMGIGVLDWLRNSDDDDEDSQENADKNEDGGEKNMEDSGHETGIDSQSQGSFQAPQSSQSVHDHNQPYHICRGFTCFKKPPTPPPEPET

[20] = molecular target: T5, Heat shock factor protein 1 (Mus musculus, UniProt P38532); test: decrease of HSF1-responsive luciferase luminescence – cell-based, NIH3T3, dose retest, confirmation (AID 2382); format: functional;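 further: NIH3T3 fibroblasts with HSF1-driven luciferase reporter stressed by proteasome inhibitor MG132; luminescence from HSF1-driven luciferase expression after 8 hours of MG132 stress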
T5 sequence (P38532 whole entry): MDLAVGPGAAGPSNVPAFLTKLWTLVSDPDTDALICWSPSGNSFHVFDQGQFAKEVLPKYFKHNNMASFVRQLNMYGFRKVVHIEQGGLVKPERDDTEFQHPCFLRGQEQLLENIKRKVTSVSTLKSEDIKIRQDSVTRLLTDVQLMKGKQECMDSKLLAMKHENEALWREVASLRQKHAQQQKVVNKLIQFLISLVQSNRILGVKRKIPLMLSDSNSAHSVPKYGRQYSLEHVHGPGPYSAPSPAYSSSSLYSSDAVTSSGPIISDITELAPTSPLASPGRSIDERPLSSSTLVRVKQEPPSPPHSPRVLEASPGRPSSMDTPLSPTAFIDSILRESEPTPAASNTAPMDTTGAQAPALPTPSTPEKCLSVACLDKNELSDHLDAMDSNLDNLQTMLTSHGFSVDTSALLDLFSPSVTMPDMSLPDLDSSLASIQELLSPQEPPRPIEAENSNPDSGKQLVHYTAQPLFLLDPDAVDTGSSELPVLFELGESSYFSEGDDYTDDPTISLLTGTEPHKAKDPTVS

[21] = molecular target: T6, RNA-binding protein pos-1 (Caenorhabditis elegans, UniProt G5EF15); test: disruptors of C. elegans POS-1 RNA interaction – biochemical, fluorescence polarization, dose response (AID 1964);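 further: purified POS-1 fused to maltose binding protein made in E. coli; potency of compounds blocking POS-1 binding to fluorescent RNA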
T6 sequence (G5EF15 whole entry): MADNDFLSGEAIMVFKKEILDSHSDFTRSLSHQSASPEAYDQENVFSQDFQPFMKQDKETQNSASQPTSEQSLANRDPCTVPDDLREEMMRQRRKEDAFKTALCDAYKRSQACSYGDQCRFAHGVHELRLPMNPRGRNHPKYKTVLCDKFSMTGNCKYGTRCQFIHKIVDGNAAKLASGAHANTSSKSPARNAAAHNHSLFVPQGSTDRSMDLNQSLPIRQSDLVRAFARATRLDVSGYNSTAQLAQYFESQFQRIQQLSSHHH

[22] = molecular target: T7, Zinc finger protein mex-5 (Caenorhabditis elegans, UniProt Q9XUB2); test: potency of MEX-5 RNA-binding blockers – biochemical, C. elegans, fluorescence polarization, dose response (AID 1960)
T7 sequence (Q9XUB2 whole entry): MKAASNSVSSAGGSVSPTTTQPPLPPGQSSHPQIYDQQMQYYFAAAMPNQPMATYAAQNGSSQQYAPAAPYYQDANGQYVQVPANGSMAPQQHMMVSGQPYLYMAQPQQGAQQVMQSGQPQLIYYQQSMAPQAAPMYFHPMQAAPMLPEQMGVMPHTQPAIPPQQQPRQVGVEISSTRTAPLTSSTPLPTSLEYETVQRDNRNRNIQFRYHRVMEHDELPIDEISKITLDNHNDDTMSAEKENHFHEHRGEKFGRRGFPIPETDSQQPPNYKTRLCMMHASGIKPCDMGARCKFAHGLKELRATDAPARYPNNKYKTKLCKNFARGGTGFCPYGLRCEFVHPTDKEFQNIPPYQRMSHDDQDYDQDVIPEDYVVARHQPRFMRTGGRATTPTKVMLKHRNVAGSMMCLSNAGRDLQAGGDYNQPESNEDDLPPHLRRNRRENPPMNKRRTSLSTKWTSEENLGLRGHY

## O=C(CSc1nc2c(c(=O)n1-c1ccc(Br)cc1)SCC2)NCc1ccco1
[1]
  AC50: 43 µM (active)

## CCCc1cc(O)nc(SCC(=O)Nc2cc3c(cc2C(C)=O)OCO3)n1
[2]
  IC50: > 100 µM (active)

## Cc1ccc(S(=O)(=O)N2CCCCC2)cc1NC(=S)NC(=O)c1ccco1
[3]
  IC50: > 66 µM (inactive)
[4]
  IC50: > 66 µM (inactive)

## O=C(Cc1ccc(Br)cc1)N1CCN(c2ccccn2)CC1
[3]
  IC50: > 66 µM (inactive)
[4]
  IC50: > 66 µM (inactive)

## O=C(Oc1ccccc1)c1cc(O)c(O)c(O)c1
[5]
  AC50: 4.01 µM (active)

## Cc1cccc(C)c1N=Nc1c(C)cc(O)cc1C
[5]
  AC50: > 20 µM (inactive)
[6]
  AC50: 8.38 µM (active)
[7]
  AC50: 5.46 µM (active)

## Cc1cc(N/N=C/c2ccc(O)cc2)c2cccc(C)c2n1
[8]
  AC50: 2.56 µM (active)

## Nc1ccc(Nc2ccncc2)cc1
[9]
  IC50: 247 µM (active)
[8]
  AC50: 16.9 µM (active)

## O=C(/C=C/c1ccco1)Oc1cc(Br)cc(/C=N/NC(=O)c2ccccc2O)c1
[10]
  EC50: 15.2 µM (active)
[11]
  EC50: 5.62 µM (active)
[12]
  EC50: 8.58 µM (active)
[13]
  EC50: 5.69 µM (active)
[14]
  EC50: > 160 µM (inactive)
[15]
  AC50: 5.21 µM (active)
[16]
  EC50: 1.49 µM (active)
[17]
  EC50: 2.62 µM (active)
[18]
  EC50: 7.54 µM (active)

## CCc1c(C2CC2)ncn1Cc1cccc(-c2ccccc2)c1
[8]
  AC50: 24.5 µM (active)

## CC1(c2ccc3noc(-c4ccccc4)c3c2)OCCO1
[2]
  IC50: > 100 µM (active)

## COc1cc(/C=N/N=C2/C(=O)Nc3ccccc32)cc(OC)c1O
[5]
  AC50: > 20 µM (inactive)
[9]
  IC50: 50.9 µM (active)
[19]
  IC50: 12.4 µM (active)
[20]
  EC50: > 195 µM (not active)

## CN(C)c1ccc2nc3ccc(=[N+](C)C)cc-3sc2c1 [METHYLENE BLUE ANHYDROUS]
[21]
  EC50: 187 µM (active)
[8]
  AC50: 0.936 µM (active)
[22]
  EC50: 114 µM (active)

## CCNC(=O)CC1C(=O)N(c2ccc(C)cc2)C(=O)N1CCc1ccc(OC)c(OC)c1 (centres undefined)
[2]
  IC50: > 100 µM (active)

## c1ccc(P(c2ccccn2)c2ccccn2)cc1
[3]
  IC50: > 66 µM (inactive)
[4]
  IC50: > 66 µM (inactive)

## COc1cccc(NC(=O)CN(C)C(=O)CSC(=S)N2CCCC2)c1
[3]
  IC50: > 66 µM (inactive)
[4]
  IC50: > 66 µM (inactive)

## COc1ccc(C(=O)NC(=S)NCc2cccnc2)cc1[N+](=O)[O-]
[3]
  IC50: > 66 µM (inactive)
[4]
  IC50: > 66 µM (inactive)

## CCCCCOC(=O)c1c(N)n(CCOC)c2nc3ccccc3nc12
[5]
  AC50: 15.7 µM (active)
